Test results from PubChem BioAssay (NCI).
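Exposure lasted 48 hours, with cells grown in 96-well plates and compounds tested at five concentrations. TGI: total growth inhibition.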

Experiments:
Test in all cases: NCI tumour cell line growth inhibition, 48 h
786-0 renal = system: 786-0 renal
A498 renal = system: A498 renal
A549 NSCLC = system: A549 NSCLC
ACHN renal = system: ACHN renal
CAKI-1 renal = system: CAKI-1 renal
CCRF-CEM leukemia = system: CCRF-CEM leukemia
COLO 205 colon = system: COLO 205 colon
DLD-1 colon = system: DLD-1 colon
DMS 114 small cell lung = system: DMS 114 small cell lung
DMS 273 small cell lung = system: DMS 273 small cell lung
EKVX NSCLC = system: EKVX NSCLC
HCC-2998 colon = system: HCC-2998 colon
HCT-116 colon = system: HCT-116 colon
HCT-15 colon = system: HCT-15 colon
HL-60(TB) leukemia = system: HL-60(TB) leukemia
HOP-62 NSCLC = system: HOP-62 NSCLC
HOP-92 NSCLC = system: HOP-92 NSCLC
IGROV1 ovarian = system: IGROV1 ovarian
K-562 leukemia = system: K-562 leukemia
KM12 colon = system: KM12 colon
KM20L2 colon = system: KM20L2 colon
LOX IMVI melanoma = system: LOX IMVI melanoma
LXFL 529 NSCLC = system: LXFL 529 NSCLC
M14 melanoma = system: M14 melanoma
M19-MEL melanoma = system: M19-MEL melanoma
MALME-3M melanoma = system: MALME-3M melanoma
MOLT-4 leukemia = system: MOLT-4 leukemia
NCI-H23 lung = system: NCI-H23 lung
NCI-H460 lung = system: NCI-H460 lung
OVCAR-3 ovarian = system: OVCAR-3 ovarian
OVCAR-4 ovarian = system: OVCAR-4 ovarian
OVCAR-5 ovarian = system: OVCAR-5 ovarian
OVCAR-8 ovarian = system: OVCAR-8 ovarian
RPMI-8226 leukemia = system: RPMI-8226 leukemia
SF-268 CNS = system: SF-268 CNS
SF-295 CNS = system: SF-295 CNS
SF-539 CNS = system: SF-539 CNS
SK-MEL-2 melanoma = system: SK-MEL-2 melanoma
SK-MEL-28 melanoma = system: SK-MEL-28 melanoma
SK-MEL-5 melanoma = system: SK-MEL-5 melanoma
SK-OV-3 ovarian = system: SK-OV-3 ovarian
SN12C renal = system: SN12C renal
SNB-19 CNS = system: SNB-19 CNS
SNB-78 CNS = system: SNB-78 CNS
SW-620 colon = system: SW-620 colon
TK-10 renal = system: TK-10 renal
U251 CNS = system: U251 CNS
UACC-257 melanoma = system: UACC-257 melanoma
UACC-62 melanoma = system: UACC-62 melanoma
XF 498 CNS = system: XF 498 CNS
HOP-18 NSCLC = system: HOP-18 NSCLC
HT29 colon = system: HT29 colon
NCI-H226 lung = system: NCI-H226 lung
NCI-H522 lung = system: NCI-H522 lung
RXF 393 renal = system: RXF 393 renal
RXF-631 renal = system: RXF-631 renal
SNB-75 CNS = system: SNB-75 CNS
SR leukemia = system: SR leukemia
UO-31 renal = system: UO-31 renal

Q: For Cc1ccc(C2=C(c3ccccc3)C(O)(c3ccc(C)cc3)C(c3ccccc3)=C2c2ccc(C)cc2)cc1, which TGI (786-0 renal) is on record?
A: The TGI was greater than 100 µM.

Q: What about the TGI (A498 renal) of the same compound?
A: The TGI was greater than 100 µM.

Q: And the TGI (A549 NSCLC)?
A: The TGI was greater than 100 µM.

Q: What about the TGI (ACHN renal) of the same compound?
A: Its TGI is greater than 100 µM.

Q: And the TGI (CAKI-1 renal)?
A: Its TGI is greater than 100 µM.

Q: What about the TGI (CCRF-CEM leukemia) of the same compound?
A: Its TGI is greater than 100 µM.

Q: And the TGI (COLO 205 colon)?
A: The TGI was greater than 100 µM.

Q: What about the TGI (DLD-1 colon) of the same compound?
A: Its TGI is greater than 100 µM.

Q: What about the TGI (DMS 114 small cell lung) of the same compound?
A: The TGI was greater than 100 µM.

Q: And the TGI (DMS 273 small cell lung)?
A: The TGI was greater than 100 µM.

Q: And the TGI (EKVX NSCLC)?
A: The TGI was greater than 100 µM.

Q: What about the TGI (HCC-2998 colon) of the same compound?
A: Its TGI is greater than 100 µM.

Q: What about the TGI (HCT-116 colon) of the same compound?
A: The TGI was greater than 100 µM.

Q: And the TGI (HCT-15 colon)?
A: Its TGI is greater than 100 µM.

Q: What about the TGI (HL-60(TB) leukemia) of the same compound?
A: The TGI was greater than 100 µM.

Q: And the TGI (HOP-62 NSCLC)?
A: Its TGI is greater than 100 µM.

Q: And the TGI (HOP-92 NSCLC)?
A: The TGI was greater than 100 µM.

Q: What about the TGI (IGROV1 ovarian) of the same compound?
A: Its TGI is greater than 100 µM.

Q: What about the TGI (K-562 leukemia) of the same compound?
A: The TGI was greater than 100 µM.

Q: And the TGI (KM12 colon)?
A: The TGI was greater than 100 µM.

Q: What about the TGI (KM20L2 colon) of the same compound?
A: Its TGI is greater than 100 µM.

Q: And the TGI (LOX IMVI melanoma)?
A: The TGI was greater than 100 µM.

Q: What about the TGI (LXFL 529 NSCLC) of the same compound?
A: The TGI was greater than 100 µM.

Q: And the TGI (M14 melanoma)?
A: Its TGI is greater than 100 µM.

Q: What about the TGI (M19-MEL melanoma) of the same compound?
A: Its TGI is greater than 100 µM.

Q: And the TGI (MALME-3M melanoma)?
A: Its TGI is greater than 100 µM.

Q: And the TGI (MOLT-4 leukemia)?
A: The TGI was greater than 100 µM.

Q: What about the TGI (NCI-H23 lung) of the same compound?
A: The TGI was 40.2 µM.

Q: And the TGI (NCI-H460 lung)?
A: The TGI was greater than 100 µM.

Q: And the TGI (OVCAR-3 ovarian)?
A: Its TGI is greater than 100 µM.

Q: What about the TGI (OVCAR-4 ovarian) of the same compound?
A: The TGI was greater than 100 µM.

Q: And the TGI (OVCAR-5 ovarian)?
A: Its TGI is greater than 100 µM.

Q: What about the TGI (OVCAR-8 ovarian) of the same compound?
A: The TGI was greater than 100 µM.

Q: And the TGI (RPMI-8226 leukemia)?
A: The TGI was greater than 100 µM.

Q: And the TGI (SF-268 CNS)?
A: Its TGI is greater than 100 µM.

Q: What about the TGI (SF-295 CNS) of the same compound?
A: Its TGI is greater than 100 µM.

Q: And the TGI (SF-539 CNS)?
A: The TGI was greater than 100 µM.

Q: What about the TGI (SK-MEL-2 melanoma) of the same compound?
A: The TGI was greater than 100 µM.

Q: And the TGI (SK-MEL-28 melanoma)?
A: The TGI was greater than 100 µM.

Q: What about the TGI (SK-MEL-5 melanoma) of the same compound?
A: The TGI was greater than 100 µM.

Q: What about the TGI (SK-OV-3 ovarian) of the same compound?
A: Its TGI is greater than 100 µM.

Q: What about the TGI (SN12C renal) of the same compound?
A: The TGI was greater than 100 µM.

Q: What about the TGI (SNB-19 CNS) of the same compound?
A: The TGI was greater than 100 µM.

Q: And the TGI (SNB-78 CNS)?
A: The TGI was greater than 100 µM.

Q: And the TGI (SW-620 colon)?
A: Its TGI is greater than 100 µM.

Q: What about the TGI (TK-10 renal) of the same compound?
A: The TGI was greater than 100 µM.

Q: And the TGI (U251 CNS)?
A: The TGI was greater than 100 µM.

Q: And the TGI (UACC-257 melanoma)?
A: Its TGI is greater than 100 µM.

Q: And the TGI (UACC-62 melanoma)?
A: The TGI was greater than 100 µM.

Q: And the TGI (XF 498 CNS)?
A: The TGI was greater than 100 µM.

Q: With CC(Oc1ccc2cc(C(=O)c3ccccc3)c(=O)oc2c1)C(=O)O (stereo not drawn) as the compound, how does the TGI (786-0 renal) read?
A: Its TGI is greater than 100 µM.

Q: What about the TGI (A498 renal) of the same compound?
A: Its TGI is greater than 100 µM.

Q: And the TGI (A549 NSCLC)?
A: Its TGI is greater than 100 µM.

Q: And the TGI (ACHN renal)?
A: Its TGI is greater than 100 µM.

Q: What about the TGI (CAKI-1 renal) of the same compound?
A: Its TGI is greater than 100 µM.

Q: What about the TGI (CCRF-CEM leukemia) of the same compound?
A: Its TGI is greater than 100 µM.

Q: And the TGI (COLO 205 colon)?
A: The TGI was greater than 100 µM.

Q: And the TGI (DMS 114 small cell lung)?
A: Its TGI is greater than 100 µM.

Q: What about the TGI (EKVX NSCLC) of the same compound?
A: Its TGI is greater than 100 µM.

Q: What about the TGI (HCC-2998 colon) of the same compound?
A: The TGI was greater than 100 µM.

Q: What about the TGI (HCT-116 colon) of the same compound?
A: Its TGI is greater than 100 µM.

Q: And the TGI (HL-60(TB) leukemia)?
A: Its TGI is greater than 100 µM.

Q: And the TGI (HOP-18 NSCLC)?
A: The TGI was greater than 100 µM.

Q: What about the TGI (HOP-62 NSCLC) of the same compound?
A: The TGI was greater than 100 µM.

Q: What about the TGI (HOP-92 NSCLC) of the same compound?
A: Its TGI is greater than 100 µM.

Q: What about the TGI (HT29 colon) of the same compound?
A: Its TGI is greater than 100 µM.

Q: And the TGI (IGROV1 ovarian)?
A: Its TGI is greater than 100 µM.

Q: What about the TGI (K-562 leukemia) of the same compound?
A: The TGI was greater than 100 µM.

Q: And the TGI (KM12 colon)?
A: Its TGI is greater than 100 µM.

Q: And the TGI (KM20L2 colon)?
A: The TGI was greater than 100 µM.

Q: And the TGI (LOX IMVI melanoma)?
A: Its TGI is greater than 100 µM.

Q: What about the TGI (LXFL 529 NSCLC) of the same compound?
A: Its TGI is greater than 100 µM.

Q: What about the TGI (M14 melanoma) of the same compound?
A: The TGI was greater than 100 µM.

Q: And the TGI (M19-MEL melanoma)?
A: The TGI was greater than 100 µM.

Q: What about the TGI (MALME-3M melanoma) of the same compound?
A: Its TGI is greater than 100 µM.

Q: What about the TGI (MOLT-4 leukemia) of the same compound?
A: Its TGI is greater than 100 µM.

Q: What about the TGI (NCI-H226 lung) of the same compound?
A: The TGI was greater than 100 µM.

Q: What about the TGI (NCI-H23 lung) of the same compound?
A: The TGI was greater than 100 µM.

Q: And the TGI (NCI-H460 lung)?
A: The TGI was greater than 100 µM.

Q: And the TGI (NCI-H522 lung)?
A: Its TGI is greater than 100 µM.

Q: What about the TGI (OVCAR-3 ovarian) of the same compound?
A: The TGI was greater than 100 µM.

Q: What about the TGI (OVCAR-4 ovarian) of the same compound?
A: Its TGI is greater than 100 µM.

Q: What about the TGI (OVCAR-8 ovarian) of the same compound?
A: Its TGI is greater than 100 µM.

Q: What about the TGI (RXF 393 renal) of the same compound?
A: Its TGI is greater than 100 µM.

Q: And the TGI (RXF-631 renal)?
A: Its TGI is greater than 100 µM.

Q: What about the TGI (SF-268 CNS) of the same compound?
A: The TGI was greater than 100 µM.

Q: What about the TGI (SF-295 CNS) of the same compound?
A: The TGI was greater than 100 µM.

Q: And the TGI (SF-539 CNS)?
A: Its TGI is greater than 100 µM.

Q: And the TGI (SK-MEL-28 melanoma)?
A: The TGI was greater than 100 µM.

Q: And the TGI (SK-MEL-5 melanoma)?
A: Its TGI is greater than 100 µM.

Q: And the TGI (SK-OV-3 ovarian)?
A: The TGI was greater than 100 µM.

Q: And the TGI (SN12C renal)?
A: Its TGI is greater than 100 µM.

Q: And the TGI (SNB-19 CNS)?
A: The TGI was greater than 100 µM.

Q: What about the TGI (SNB-75 CNS) of the same compound?
A: Its TGI is greater than 100 µM.

Q: And the TGI (SNB-78 CNS)?
A: The TGI was greater than 100 µM.

Q: What about the TGI (SR leukemia) of the same compound?
A: Its TGI is greater than 100 µM.

Q: And the TGI (SW-620 colon)?
A: Its TGI is greater than 100 µM.

Q: And the TGI (TK-10 renal)?
A: The TGI was greater than 100 µM.

Q: What about the TGI (U251 CNS) of the same compound?
A: The TGI was greater than 100 µM.

Q: What about the TGI (UACC-257 melanoma) of the same compound?
A: The TGI was greater than 100 µM.

Q: And the TGI (UACC-62 melanoma)?
A: The TGI was greater than 100 µM.

Q: And the TGI (UO-31 renal)?
A: Its TGI is greater than 100 µM.

Q: What about the TGI (XF 498 CNS) of the same compound?
A: The TGI was greater than 100 µM.
